According to PubChem BioAssay AID2060613 (Molecular Pharmacology Branch, DTP, NCI, 2025):

Test system: 233499-124-R-J3-PDC complex spheroid viability
Assay: Anticancer human tumor 233499-124-R-J3-PDC patient-derived colon adenocarcinoma cell line growth inhibition [CLK]
Details: for IC50: curve of first compound; for viability, T/C: stronger effect = lower value
How it was run: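 Patient-derived tumor cells grown as complex spheroids with HUVEC endothelial cells and mesenchymal stem cells, treated with drug combinations. Concentrations descend in half-log steps from near clinical Cmax, or from 10 microM if Cmax unknown.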

[1] = second compound 0.0316 µM, first compound 0.0316 µM
[2] = second compound 0.0316 µM, first compound 0.1 µM
[3] = second compound 0.0316 µM, first compound 0.316 µM
[4] = second compound 0.0316 µM, first compound 1 µM
[5] = second compound 0.0316 µM, first compound 3.16 µM
[6] = second compound 0.0316 µM, first compound 10 µM
[7] = second compound 0.1 µM, first compound 0.0316 µM
[8] = second compound 0.1 µM, first compound 0.1 µM
[9] = second compound 0.1 µM, first compound 0.316 µM
[10] = second compound 0.1 µM, first compound 1 µM
[11] = second compound 0.1 µM, first compound 3.16 µM
[12] = second compound 0.1 µM, first compound 10 µM
[13] = second compound 0.316 µM, first compound 0.0316 µM
[14] = second compound 0.316 µM, first compound 0.1 µM
[15] = second compound 0.316 µM, first compound 0.316 µM
[16] = second compound 0.316 µM, first compound 1 µM
[17] = second compound 0.316 µM, first compound 3.16 µM
[18] = second compound 0.316 µM, first compound 10 µM
[19] = second compound 1 µM, first compound 0.0316 µM
[20] = second compound 1 µM, first compound 0.1 µM
[21] = second compound 1 µM, first compound 0.316 µM
[22] = second compound 1 µM, first compound 1 µM
[23] = second compound 1 µM, first compound 3.16 µM
[24] = second compound 1 µM, first compound 10 µM
[25] = second compound 3.16 µM, first compound 0.0316 µM
[26] = second compound 3.16 µM, first compound 0.1 µM
[27] = second compound 3.16 µM, first compound 0.316 µM
[28] = second compound 3.16 µM, first compound 1 µM
[29] = second compound 3.16 µM, first compound 3.16 µM
[30] = second compound 3.16 µM, first compound 10 µM
[31] = second compound 10 µM, first compound 0.0316 µM
[32] = second compound 10 µM, first compound 0.1 µM
[33] = second compound 10 µM, first compound 0.316 µM
[34] = second compound 10 µM, first compound 1 µM
[35] = second compound 10 µM, first compound 3.16 µM
[36] = second compound 10 µM, first compound 10 µM
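Further: spheroids exposed to the drug combinations for seven days.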
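Wherever viability, T/C is given: percent viability relative to DMSO vehicle control wells taken as 100%.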

**Q.** What does the source list for `Nc1ccn(C2OC(CO)C(O)C2(F)F)c(=O)n1` (centres undefined) + CNC(=O)c1ccc(Nc2nc(OC3CCCC3)c3c(-c4ccc5nc(C)oc5c4)c[nH]c3n2)c(OC)c1?
**A.** IC50 (second compound 0.0316 µM): 71.3 nM; IC50 (second compound 0.1 µM): 125 nM; IC50 (second compound 0.316 µM): 121 nM; IC50 (second compound 1 µM): 42.4 nM; IC50 (second compound 3.16 µM): 39.9 nM; IC50 (second compound 10 µM): 44.1 nM; viability, T/C [1]: 80.5%; viability, T/C [2]: 37.3%; viability, T/C [3]: 11.7%; viability, T/C [4]: 13.9%; viability, T/C [5]: 22.5%; viability, T/C [6]: 13.7%; viability, T/C [7]: 56.8%; viability, T/C [8]: 57.8%; viability, T/C [9]: 18.3%; viability, T/C [10]: 22%; viability, T/C [11]: 18.2%; viability, T/C [12]: 18.3%; viability, T/C [13]: 65.2%; viability, T/C [14]: 56.8%; viability, T/C [15]: 15.7%; viability, T/C [16]: 8.6%; viability, T/C [17]: 14.8%; viability, T/C [18]: 14.3%; viability, T/C [19]: 63%; viability, T/C [20]: 12%; viability, T/C [21]: 13.7%; viability, T/C [22]: 9.36%; viability, T/C [23]: 10.2%; viability, T/C [24]: 8.84%; viability, T/C [25]: 53.5%; viability, T/C [26]: 36%; viability, T/C [27]: 11.4%; viability, T/C [28]: 5.38%; viability, T/C [29]: 6.79%; viability, T/C [30]: 5.11%; viability, T/C [31]: 53.4%; viability, T/C [32]: 41.7%; viability, T/C [33]: 11.5%; viability, T/C [34]: 6.13%; viability, T/C [35]: 5.83%; viability, T/C [36]: 4.84%

**Q.** Which results are given for `O=C(c1cc(Cc2n[nH]c(=O)c3ccccc23)ccc1F)N1CCN(C(=O)C2CC2)CC1` + CNC(=O)c1ccc(Nc2nc(OC3CCCC3)c3c(-c4ccc5nc(C)oc5c4)c[nH]c3n2)c(OC)c1?
**A.** IC50 (second compound 0.0316 µM): > 10000 nM; IC50 (second compound 0.1 µM): > 10000 nM; IC50 (second compound 0.316 µM): > 10000 nM; IC50 (second compound 1 µM): > 10000 nM; IC50 (second compound 3.16 µM): > 10000 nM; IC50 (second compound 10 µM): > 10000 nM; viability, T/C [1]: 96%; viability, T/C [2]: 91.1%; viability, T/C [3]: 93%; viability, T/C [4]: 102%; viability, T/C [5]: 102%; viability, T/C [6]: 95.7%; viability, T/C [7]: 76.7%; viability, T/C [8]: 84.3%; viability, T/C [9]: 71.6%; viability, T/C [10]: 70.1%; viability, T/C [11]: 57.8%; viability, T/C [12]: 55.1%; viability, T/C [13]: 75.6%; viability, T/C [14]: 77.7%; viability, T/C [15]: 78%; viability, T/C [16]: 78%; viability, T/C [17]: 84.1%; viability, T/C [18]: 76.2%; viability, T/C [19]: 67.6%; viability, T/C [20]: 79.6%; viability, T/C [21]: 65.6%; viability, T/C [22]: 71.2%; viability, T/C [23]: 74.4%; viability, T/C [24]: 68.4%; viability, T/C [25]: 80%; viability, T/C [26]: 79.1%; viability, T/C [27]: 75.6%; viability, T/C [28]: 66.7%; viability, T/C [29]: 87.8%; viability, T/C [30]: 59.6%; viability, T/C [31]: 71%; viability, T/C [32]: 85.3%; viability, T/C [33]: 74.8%; viability, T/C [34]: 75.2%; viability, T/C [35]: 65%; viability, T/C [36]: 57.1%
